Values of other authors in article PMC9851200, “Multiparameter phenotypic screening for endogenous TFEB and TFE3 translocation identifies novel chemical series modulating lysosome function” (Autophagy, 2022).

How the values were obtained:
Parameters in all cases: method as in original PKIS2 published data
[1] = biological target: T1, kinases (KINOMEscan panel) (Homo sapiens, UniProt Q8IWQ3); conditions: kinase BRSK2; Published KINOMEscan; ref original PKIS2 published data; cited from earlier work
T1 sequence (Q8IWQ3 1-736): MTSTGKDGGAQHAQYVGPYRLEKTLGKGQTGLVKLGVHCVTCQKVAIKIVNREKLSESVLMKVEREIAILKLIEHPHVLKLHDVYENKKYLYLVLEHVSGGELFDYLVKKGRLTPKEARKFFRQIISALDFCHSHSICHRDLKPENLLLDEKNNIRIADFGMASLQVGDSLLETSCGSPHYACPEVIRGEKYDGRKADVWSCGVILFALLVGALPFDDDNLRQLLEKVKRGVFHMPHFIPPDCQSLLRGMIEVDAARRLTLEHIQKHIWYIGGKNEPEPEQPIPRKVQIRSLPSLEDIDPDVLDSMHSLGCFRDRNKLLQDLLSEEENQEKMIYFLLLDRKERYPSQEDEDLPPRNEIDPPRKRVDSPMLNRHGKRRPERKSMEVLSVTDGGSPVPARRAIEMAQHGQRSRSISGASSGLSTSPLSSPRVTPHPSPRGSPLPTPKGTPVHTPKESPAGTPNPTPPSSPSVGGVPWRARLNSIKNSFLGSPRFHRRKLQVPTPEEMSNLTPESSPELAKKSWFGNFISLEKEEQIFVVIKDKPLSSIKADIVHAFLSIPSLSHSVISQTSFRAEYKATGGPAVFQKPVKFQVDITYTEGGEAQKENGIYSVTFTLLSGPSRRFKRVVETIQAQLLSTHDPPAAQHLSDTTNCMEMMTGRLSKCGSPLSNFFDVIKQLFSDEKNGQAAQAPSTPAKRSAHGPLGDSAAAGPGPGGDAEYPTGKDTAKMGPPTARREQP

[2] = biological target: kinases (KINOMEscan panel) (Homo sapiens, UniProt Q13705); conditions: kinase ACVR2B; Published KINOMEscan; ref original PKIS2 published data; cited from earlier work
[3] = biological target: kinases (KINOMEscan panel) (Homo sapiens, UniProt P51957); conditions: kinase NEK4; Published KINOMEscan; ref original PKIS2 published data; cited from earlier work
[4] = biological target: kinases (KINOMEscan panel) (Homo sapiens, UniProt Q07912); conditions: TNK2; Published KINOMEscan; ref original PKIS2 published data; cited from earlier work
[5] = biological target: T2, kinases (KINOMEscan panel) (Homo sapiens, UniProt O15197); conditions: kinase EPHB6; Published KINOMEscan; ref original PKIS2 published data; cited from earlier work
T2 sequence (O15197 32-1021): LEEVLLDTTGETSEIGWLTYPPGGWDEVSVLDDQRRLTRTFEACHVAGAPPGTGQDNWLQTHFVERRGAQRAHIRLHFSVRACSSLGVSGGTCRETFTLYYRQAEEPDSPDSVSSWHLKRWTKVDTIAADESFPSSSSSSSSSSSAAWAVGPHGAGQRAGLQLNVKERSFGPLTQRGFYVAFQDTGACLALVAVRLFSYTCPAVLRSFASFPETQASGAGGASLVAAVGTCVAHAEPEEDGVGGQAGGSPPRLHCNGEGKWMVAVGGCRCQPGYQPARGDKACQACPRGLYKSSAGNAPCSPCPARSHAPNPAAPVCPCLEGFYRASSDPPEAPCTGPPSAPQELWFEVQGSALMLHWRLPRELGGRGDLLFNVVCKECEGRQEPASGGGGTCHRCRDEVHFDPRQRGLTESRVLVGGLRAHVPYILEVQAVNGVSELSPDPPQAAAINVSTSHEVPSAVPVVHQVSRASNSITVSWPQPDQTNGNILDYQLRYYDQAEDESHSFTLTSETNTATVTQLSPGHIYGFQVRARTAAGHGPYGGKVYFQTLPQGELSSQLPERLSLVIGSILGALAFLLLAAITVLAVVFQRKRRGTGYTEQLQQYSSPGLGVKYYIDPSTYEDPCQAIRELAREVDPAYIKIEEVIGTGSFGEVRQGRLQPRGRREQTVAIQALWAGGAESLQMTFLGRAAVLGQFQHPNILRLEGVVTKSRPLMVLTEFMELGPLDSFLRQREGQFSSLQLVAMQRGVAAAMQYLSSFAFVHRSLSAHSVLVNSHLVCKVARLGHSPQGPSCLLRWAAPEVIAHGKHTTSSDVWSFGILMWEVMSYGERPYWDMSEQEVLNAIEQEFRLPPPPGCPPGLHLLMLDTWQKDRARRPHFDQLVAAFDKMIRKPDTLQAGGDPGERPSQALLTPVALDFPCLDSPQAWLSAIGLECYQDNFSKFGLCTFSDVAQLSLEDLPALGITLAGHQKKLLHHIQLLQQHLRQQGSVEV

[6] = biological target: T3, kinases (KINOMEscan panel) (Homo sapiens, UniProt Q09013); conditions: kinase DMPK; Published KINOMEscan; ref original PKIS2 published data; cited from earlier work
T3 sequence (Q09013 1-629): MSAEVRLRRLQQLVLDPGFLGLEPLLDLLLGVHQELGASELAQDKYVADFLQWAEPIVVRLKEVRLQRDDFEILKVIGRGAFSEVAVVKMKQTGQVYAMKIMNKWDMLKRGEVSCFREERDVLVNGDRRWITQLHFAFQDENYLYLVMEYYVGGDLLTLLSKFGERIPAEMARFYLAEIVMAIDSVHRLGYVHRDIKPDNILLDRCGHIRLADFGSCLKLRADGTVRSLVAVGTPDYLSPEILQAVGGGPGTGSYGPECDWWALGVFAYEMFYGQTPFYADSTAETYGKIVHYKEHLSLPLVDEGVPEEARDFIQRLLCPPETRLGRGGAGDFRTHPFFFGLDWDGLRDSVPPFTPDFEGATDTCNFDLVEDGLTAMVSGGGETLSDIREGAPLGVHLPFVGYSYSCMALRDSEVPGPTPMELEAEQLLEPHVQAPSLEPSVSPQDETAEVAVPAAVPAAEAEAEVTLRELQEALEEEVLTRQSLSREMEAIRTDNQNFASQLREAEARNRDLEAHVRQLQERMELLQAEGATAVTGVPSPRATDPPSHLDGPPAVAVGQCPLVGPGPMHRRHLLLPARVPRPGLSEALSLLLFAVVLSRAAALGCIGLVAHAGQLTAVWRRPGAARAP

Sequence of kinases (KINOMEscan panel) (Homo sapiens, UniProt Q13705) (Q13705 19-512): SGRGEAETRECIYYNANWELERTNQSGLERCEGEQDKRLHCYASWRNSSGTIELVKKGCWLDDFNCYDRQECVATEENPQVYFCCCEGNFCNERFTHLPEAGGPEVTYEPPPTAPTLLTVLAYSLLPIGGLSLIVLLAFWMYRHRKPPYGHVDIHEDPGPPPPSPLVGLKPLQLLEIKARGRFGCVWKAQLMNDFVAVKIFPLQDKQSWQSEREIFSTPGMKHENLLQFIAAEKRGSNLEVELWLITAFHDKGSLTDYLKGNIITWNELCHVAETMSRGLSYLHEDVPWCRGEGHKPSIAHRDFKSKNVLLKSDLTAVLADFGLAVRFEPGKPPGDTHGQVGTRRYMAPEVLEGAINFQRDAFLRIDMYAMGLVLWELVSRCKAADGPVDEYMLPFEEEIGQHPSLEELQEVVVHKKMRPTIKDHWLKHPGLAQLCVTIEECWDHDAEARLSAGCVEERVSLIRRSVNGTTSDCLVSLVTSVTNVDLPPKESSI
Sequence of kinases (KINOMEscan panel) (Homo sapiens, UniProt P51957) (P51957 whole entry): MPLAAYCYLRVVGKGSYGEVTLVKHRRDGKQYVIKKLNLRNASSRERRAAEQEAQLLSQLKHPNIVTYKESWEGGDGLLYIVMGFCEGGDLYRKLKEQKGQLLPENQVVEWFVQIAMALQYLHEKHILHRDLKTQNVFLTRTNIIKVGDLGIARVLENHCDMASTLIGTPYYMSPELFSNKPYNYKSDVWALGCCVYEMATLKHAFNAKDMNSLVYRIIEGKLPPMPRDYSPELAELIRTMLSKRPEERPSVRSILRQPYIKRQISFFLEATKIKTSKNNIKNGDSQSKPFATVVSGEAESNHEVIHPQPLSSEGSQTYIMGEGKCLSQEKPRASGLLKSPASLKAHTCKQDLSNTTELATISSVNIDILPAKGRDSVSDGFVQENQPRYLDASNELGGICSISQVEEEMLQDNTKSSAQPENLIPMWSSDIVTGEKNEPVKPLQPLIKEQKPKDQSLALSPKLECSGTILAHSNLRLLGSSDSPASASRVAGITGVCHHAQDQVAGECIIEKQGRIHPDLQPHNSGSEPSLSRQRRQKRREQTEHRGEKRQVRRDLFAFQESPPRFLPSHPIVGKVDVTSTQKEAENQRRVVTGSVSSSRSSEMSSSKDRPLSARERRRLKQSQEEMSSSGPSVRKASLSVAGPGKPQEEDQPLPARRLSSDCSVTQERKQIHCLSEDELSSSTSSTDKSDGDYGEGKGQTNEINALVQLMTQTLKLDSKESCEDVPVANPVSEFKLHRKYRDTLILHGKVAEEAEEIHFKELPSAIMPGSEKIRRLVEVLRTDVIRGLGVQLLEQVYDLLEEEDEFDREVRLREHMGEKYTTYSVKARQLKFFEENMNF
Sequence of kinases (KINOMEscan panel) (Homo sapiens, UniProt Q07912) (Q07912 whole entry): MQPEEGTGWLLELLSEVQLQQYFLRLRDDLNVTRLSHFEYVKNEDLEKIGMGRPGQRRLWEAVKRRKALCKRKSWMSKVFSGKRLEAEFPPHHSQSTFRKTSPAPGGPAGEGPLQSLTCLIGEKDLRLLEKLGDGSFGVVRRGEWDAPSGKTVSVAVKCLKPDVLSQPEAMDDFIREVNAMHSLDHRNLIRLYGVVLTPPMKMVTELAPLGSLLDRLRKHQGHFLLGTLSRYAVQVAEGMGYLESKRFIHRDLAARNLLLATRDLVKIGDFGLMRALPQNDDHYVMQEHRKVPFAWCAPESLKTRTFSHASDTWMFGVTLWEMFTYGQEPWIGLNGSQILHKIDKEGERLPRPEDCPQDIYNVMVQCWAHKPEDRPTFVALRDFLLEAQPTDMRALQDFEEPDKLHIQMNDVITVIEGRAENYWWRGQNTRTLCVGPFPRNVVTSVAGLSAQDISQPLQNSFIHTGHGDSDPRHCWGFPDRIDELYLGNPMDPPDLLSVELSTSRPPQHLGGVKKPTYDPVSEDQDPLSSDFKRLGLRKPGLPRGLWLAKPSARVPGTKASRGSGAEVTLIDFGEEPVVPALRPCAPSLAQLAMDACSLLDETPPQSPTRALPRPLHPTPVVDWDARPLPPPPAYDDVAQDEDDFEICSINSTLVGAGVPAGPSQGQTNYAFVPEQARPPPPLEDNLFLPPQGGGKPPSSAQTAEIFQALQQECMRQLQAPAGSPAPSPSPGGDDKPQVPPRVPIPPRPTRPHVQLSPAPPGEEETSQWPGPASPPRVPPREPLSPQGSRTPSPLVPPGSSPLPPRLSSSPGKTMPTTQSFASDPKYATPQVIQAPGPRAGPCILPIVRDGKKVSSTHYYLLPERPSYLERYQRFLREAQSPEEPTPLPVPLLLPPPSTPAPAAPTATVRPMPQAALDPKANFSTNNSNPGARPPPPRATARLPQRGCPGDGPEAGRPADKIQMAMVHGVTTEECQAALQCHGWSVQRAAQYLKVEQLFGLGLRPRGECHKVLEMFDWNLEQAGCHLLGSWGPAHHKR

Cc1cccc(-c2nc(Nc3ccncc3)c3ccccc3n2)n1 [NK215]
KINOMEscan BRSK2 [1]: 11 | KINOMEscan ACVR2B [2]: 36 | KINOMEscan NEK4 [3]: 0 | KINOMEscan TNK2 [4]: 0 | KINOMEscan EPHB6 [5]: 0 | KINOMEscan DMPK [6]: 2
